Experimental data reported in PubChem BioAssay (NCI).
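All cell lines were grown in 96-well plates and treated with compound for 48 hours. TGI: total growth inhibition.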

Assays:
Test in all cases: growth of human tumour cells (NCI), 48 h
SK-OV-3 ovarian = tested on: SK-OV-3 ovarian
K-562 leukemia = tested on: K-562 leukemia
A549 NSCLC = tested on: A549 NSCLC
SK-MEL-5 melanoma = tested on: SK-MEL-5 melanoma
EKVX NSCLC = tested on: EKVX NSCLC
RPMI-8226 leukemia = tested on: RPMI-8226 leukemia
MDA-N = tested on: MDA-N
OVCAR-3 ovarian = tested on: OVCAR-3 ovarian
SF-539 CNS = tested on: SF-539 CNS
OVCAR-4 ovarian = tested on: OVCAR-4 ovarian
MCF7 breast = tested on: MCF7 breast
CAKI-1 renal = tested on: CAKI-1 renal
PC-3 prostate = tested on: PC-3 prostate
SW-620 colon = tested on: SW-620 colon
SR leukemia = tested on: SR leukemia
HT29 colon = tested on: HT29 colon
NCI-H23 lung = tested on: NCI-H23 lung
IGROV1 ovarian = tested on: IGROV1 ovarian
BT-549 breast = tested on: BT-549 breast
DU-145 prostate = tested on: DU-145 prostate
SNB-75 CNS = tested on: SNB-75 CNS
M14 melanoma = tested on: M14 melanoma
OVCAR-5 ovarian = tested on: OVCAR-5 ovarian
TK-10 renal = tested on: TK-10 renal
SN12C renal = tested on: SN12C renal
HCT-15 colon = tested on: HCT-15 colon
UO-31 renal = tested on: UO-31 renal
HCC-2998 colon = tested on: HCC-2998 colon
LOX IMVI melanoma = tested on: LOX IMVI melanoma
KM12 colon = tested on: KM12 colon
UACC-257 melanoma = tested on: UACC-257 melanoma
HOP-62 NSCLC = tested on: HOP-62 NSCLC
NCI/ADR-RES ovarian = tested on: NCI/ADR-RES ovarian
SF-268 CNS = tested on: SF-268 CNS
NCI-H522 lung = tested on: NCI-H522 lung
CCRF-CEM leukemia = tested on: CCRF-CEM leukemia
RXF 393 renal = tested on: RXF 393 renal
NCI-H226 lung = tested on: NCI-H226 lung
MDA-MB-435 = tested on: MDA-MB-435
SNB-19 CNS = tested on: SNB-19 CNS
COLO 205 colon = tested on: COLO 205 colon
SF-295 CNS = tested on: SF-295 CNS
SK-MEL-28 melanoma = tested on: SK-MEL-28 melanoma
MALME-3M melanoma = tested on: MALME-3M melanoma
MDA-MB-231 breast = tested on: MDA-MB-231 breast
NCI-H460 lung = tested on: NCI-H460 lung
HCT-116 colon = tested on: HCT-116 colon
SK-MEL-2 melanoma = tested on: SK-MEL-2 melanoma
786-0 renal = tested on: 786-0 renal
HOP-92 NSCLC = tested on: HOP-92 NSCLC
MOLT-4 leukemia = tested on: MOLT-4 leukemia
ACHN renal = tested on: ACHN renal
UACC-62 melanoma = tested on: UACC-62 melanoma
U251 CNS = tested on: U251 CNS
OVCAR-8 ovarian = tested on: OVCAR-8 ovarian
T-47D breast = tested on: T-47D breast
HL-60(TB) leukemia = tested on: HL-60(TB) leukemia

OCC1C2CCC3(OCCO3)C12 (centres undefined) showed a TGI (SK-OV-3 ovarian) of over 100 µM, a TGI (K-562 leukemia) of over 100 µM and a TGI (A549 NSCLC) of over 100 µM. It also gave a TGI (SK-MEL-5 melanoma) of over 100 µM, a TGI (EKVX NSCLC) of over 100 µM and a TGI (RPMI-8226 leukemia) of over 100 µM. The TGI (MDA-N) was over 100 µM, the TGI (OVCAR-3 ovarian) was over 100 µM and the TGI (SF-539 CNS) was over 100 µM. For the same molecule, the TGI (OVCAR-4 ovarian) was over 100 µM, the TGI (MCF7 breast) was over 100 µM and the TGI (CAKI-1 renal) was over 100 µM. It also gave a TGI (PC-3 prostate) of over 100 µM, a TGI (SW-620 colon) of over 100 µM and a TGI (SR leukemia) of over 100 µM. The TGI (HT29 colon) was over 100 µM, the TGI (NCI-H23 lung) was 33.7 µM and the TGI (IGROV1 ovarian) was over 100 µM. For the same molecule, the TGI (BT-549 breast) was 35.6 µM, the TGI (DU-145 prostate) was over 100 µM and the TGI (SNB-75 CNS) was over 100 µM. The TGI (M14 melanoma) was over 100 µM, the TGI (OVCAR-5 ovarian) was over 100 µM and the TGI (TK-10 renal) was over 100 µM. It also gave a TGI (SN12C renal) of over 100 µM, a TGI (HCT-15 colon) of over 100 µM and a TGI (UO-31 renal) of 29.6 µM. The TGI (HCC-2998 colon) was over 100 µM, the TGI (LOX IMVI melanoma) was over 100 µM and the TGI (KM12 colon) was over 100 µM. The TGI (UACC-257 melanoma) was over 100 µM, the TGI (HOP-62 NSCLC) was over 100 µM and the TGI (NCI/ADR-RES ovarian) was over 100 µM. For the same molecule, the TGI (SF-268 CNS) was over 100 µM, the TGI (NCI-H522 lung) was over 100 µM and the TGI (CCRF-CEM leukemia) was over 100 µM. It also gave a TGI (RXF 393 renal) of over 100 µM, a TGI (NCI-H226 lung) of over 100 µM and a TGI (MDA-MB-435) of over 100 µM. It also gave a TGI (SNB-19 CNS) of over 100 µM, a TGI (COLO 205 colon) of over 100 µM and a TGI (SF-295 CNS) of over 100 µM. The TGI (SK-MEL-28 melanoma) was over 100 µM, the TGI (MALME-3M melanoma) was over 100 µM and the TGI (MDA-MB-231 breast) was over 100 µM. It also gave a TGI (NCI-H460 lung) of over 100 µM, a TGI (HCT-116 colon) of over 100 µM and a TGI (SK-MEL-2 melanoma) of over 100 µM. The TGI (786-0 renal) was over 100 µM, the TGI (HOP-92 NSCLC) was over 100 µM and the TGI (MOLT-4 leukemia) was over 100 µM. For the same molecule, the TGI (ACHN renal) was over 100 µM, the TGI (UACC-62 melanoma) was 33 µM and the TGI (U251 CNS) was over 100 µM. It also gave a TGI (OVCAR-8 ovarian) of over 100 µM.
COc1ccc(N=C(CS(=O)c2ccc(C)cc2)C(F)(F)F)cc1 (centres undefined) gave a TGI (SK-OV-3 ovarian) of over 100 µM, a TGI (K-562 leukemia) of over 100 µM and a TGI (A549 NSCLC) of over 100 µM. For the same molecule, the TGI (SK-MEL-5 melanoma) was over 100 µM, the TGI (EKVX NSCLC) was over 100 µM and the TGI (MDA-N) was over 100 µM. The TGI (OVCAR-3 ovarian) was over 100 µM, the TGI (SF-539 CNS) was over 100 µM and the TGI (OVCAR-4 ovarian) was over 100 µM. It also gave a TGI (MCF7 breast) of over 100 µM, a TGI (CAKI-1 renal) of over 100 µM and a TGI (PC-3 prostate) of over 100 µM. The TGI (T-47D breast) was over 100 µM, the TGI (SW-620 colon) was over 100 µM and the TGI (SR leukemia) was over 100 µM. The TGI (HT29 colon) was over 100 µM, the TGI (NCI-H23 lung) was over 100 µM and the TGI (IGROV1 ovarian) was over 100 µM. The TGI (BT-549 breast) was over 100 µM, the TGI (DU-145 prostate) was over 100 µM and the TGI (SNB-75 CNS) was over 100 µM. For the same molecule, the TGI (M14 melanoma) was over 100 µM, the TGI (OVCAR-5 ovarian) was over 100 µM and the TGI (TK-10 renal) was over 100 µM. For the same molecule, the TGI (SN12C renal) was over 100 µM, the TGI (HCT-15 colon) was over 100 µM and the TGI (UO-31 renal) was over 100 µM. For the same molecule, the TGI (HCC-2998 colon) was over 100 µM, the TGI (LOX IMVI melanoma) was over 100 µM and the TGI (KM12 colon) was over 100 µM. For the same molecule, the TGI (UACC-257 melanoma) was over 100 µM, the TGI (NCI/ADR-RES ovarian) was over 100 µM and the TGI (NCI-H522 lung) was over 100 µM. For the same molecule, the TGI (CCRF-CEM leukemia) was over 100 µM, the TGI (RXF 393 renal) was over 100 µM and the TGI (NCI-H226 lung) was over 100 µM. It also gave a TGI (MDA-MB-435) of over 100 µM, a TGI (SNB-19 CNS) of over 100 µM and a TGI (COLO 205 colon) of over 100 µM. It also gave a TGI (SF-295 CNS) of over 100 µM, a TGI (HL-60(TB) leukemia) of 50.9 µM and a TGI (SK-MEL-28 melanoma) of over 100 µM. For the same molecule, the TGI (MALME-3M melanoma) was over 100 µM, the TGI (MDA-MB-231 breast) was over 100 µM and the TGI (NCI-H460 lung) was over 100 µM. It also gave a TGI (HCT-116 colon) of over 100 µM, a TGI (SK-MEL-2 melanoma) of over 100 µM and a TGI (786-0 renal) of over 100 µM. It also gave a TGI (HOP-92 NSCLC) of over 100 µM, a TGI (MOLT-4 leukemia) of over 100 µM and a TGI (ACHN renal) of over 100 µM. For the same molecule, the TGI (UACC-62 melanoma) was over 100 µM, the TGI (U251 CNS) was over 100 µM and the TGI (OVCAR-8 ovarian) was over 100 µM.
